As usually defined, the Ki is the dissociation constant of the complex between target and ligand, obtained from inhibition or displacement. Read a low Ki as higher affinity.

The target in this experiment is T1, OX2R (Homo sapiens, UniProt O43614).
T1 construct: expressed in transfected cells; host or cells: CHO cells (membranes)
T1 sequence (O43614 1-444): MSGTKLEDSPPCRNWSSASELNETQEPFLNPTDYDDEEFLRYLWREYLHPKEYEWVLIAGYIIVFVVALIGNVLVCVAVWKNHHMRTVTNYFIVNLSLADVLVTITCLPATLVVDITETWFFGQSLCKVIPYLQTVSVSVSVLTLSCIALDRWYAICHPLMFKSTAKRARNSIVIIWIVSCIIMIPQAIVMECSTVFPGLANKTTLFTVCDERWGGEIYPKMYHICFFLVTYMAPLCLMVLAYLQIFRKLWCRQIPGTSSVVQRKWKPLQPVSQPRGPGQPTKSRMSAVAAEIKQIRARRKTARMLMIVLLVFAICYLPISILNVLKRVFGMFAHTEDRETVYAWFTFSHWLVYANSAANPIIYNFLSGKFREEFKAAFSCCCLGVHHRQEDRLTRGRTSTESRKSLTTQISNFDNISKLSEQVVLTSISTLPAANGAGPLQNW
Briefly: radioligand binding assay, membranes from CHO cells expressing the OX2 receptor. As to conditions: CHO cell membranes. How it is done: The utility of the compounds in accordance with the present invention as orexin receptor OX1R and/or OX2R antagonists may be readily determined without undue experimentation by methodology well known in the art, including the “FLIPR Ca^2+ Flux Assay” (Okumura et al., Biochem. Biophys. Res. Comm. 280:976-981, 2001). In a typical experiment the OX1 and OX2 receptor antagonistic activity of the compounds of the present invention was determined in accordance with the following experimental method. For intracellular calcium measurements, Chinese hamster ovary (CHO) cells expressing the rat orexin-1 receptor or the human orexin-2 receptor, are grown in Iscove's modified DMEM containing 2 mM L-glutamine, […], 1% hypoxanthine-thymidine supplement, 100 U/ml penicillin, 100 ug/ml streptomycin and 10% heat-inactivated fetal calf serum (FCS). The cells are seeded at 20,000 cells/well into Becton-Dickinson black 384-well clear bottom sterile plates coated with poly-D-lysine. All reagents were from GIBCO-Invitrogen Corp. The seeded plates are incubated overnight at 37° C. and 5% CO2. Ala-6,12 human orexin-A as the agonist is prepared as a 1 mM stock solution in 1% bovine serum albumin (BSA) and diluted in assay buffer (HBSS containing 20 mM HEPES, 0.1% BSA and 2.5 mM probenecid, pH7.4) for use in the assay at a final concentration of 70 pM. Test compounds are prepared as 10 mM stock solution in DMSO, then diluted in 384-well plates, first in DMSO, then assay buffer. On the day of the assay, cells are washed 3 times with 100 ul assay buffer and then incubated for 60 min (37° C., 5% CO2) in 60 ul assay buffer containing 1 uM Fluo-4AM ester, 0.02% pluronic acid, and 1% BSA. The dye loading solution is then aspirated and cells are washed 3 times with 100 ul assay buffer. 30 ul of that same buffer is left in each well. Within the Fluorescent Imaging Plate Reader (FLIPR, Molecular Devices), test compounds are added to the plate in a volume of 25 ul, incubated for 5 min and finally 25 ul of agonist is added. Fluorescence is measured for each well at 1 second intervals for 5 minutes and the height of each fluorescence peak is compared to the height of the fluorescence peak induced by 70 pM Ala-6,12 orexin-A with buffer in place of antagonist. For each antagonist, IC50 value (the concentration of compound needed to inhibit 50% of the agonist response) is determined. Alternatively, compound potency can be assessed by a radioligand binding assay (described in Bergman et. al. Bioorg. Med. Chem. Lett. 2008, 18, 1425-1430) in which the inhibition constant (Ki) is determined in membranes prepared from CHO cells expressing either the OX1 or OX2 receptor. The intrinsic orexin receptor antagonist activity of a compound which may be used in the present invention may be determined by these assays.
`CNC(=O)[C@@H](c1ccccc1)N1CCc2nc(OC)c(OC)cc2[C@@H]1CCc1ccc(F)cc1F` [Compound 1-8, (2R)-2-[(5S)-5-[2-(2,4-difluoro-phenyl)ethyl]-2,3-dimethoxy-7,8-dihydro-1,6-naphthyridin-6(5H)-yl]-N-methyl-2-phenylethanamide] came in with a Ki of 1 nM.

As for `CNC(=O)[C@@H](c1ccccc1)N1CCc2nc(OC)c(OC)cc2[C@@H]1CCc1ccc(C)cc1` [Compound 1-9, (2R)-2-[(5S)-2,3-dimethoxy-5-[2-(4-methylphenyl)ethyl]-7,8-dihydro-1,6-naphthyridin-6(5H)-yl]-N-methyl-2-phenylethanamide], the affinity, expressed as Ki, was 0.18 nM.

`CNC(=O)[C@@H](c1ccccc1)N1CCc2cc(OC)c(OC)nc2[C@@H]1CCc1ccc(C(F)(F)F)cc1` [Compound 1-10, (2R)-2-[(8S)-2,3-dimethoxy-8-{2-[4-(trifluoromethyl)phenyl]ethyl}-5,8-dihydro-1,7-naphthyridin-7(6H)-yl]-N-methyl-2-phenylethanamide] came in with a Ki of 0.17 nM. This Ki and that of the molecule before are within 1.5-fold of each other.

With `CNC(=O)[C@@H](c1ccccc1)N1CCc2nc(OC)c(OC)cc2[C@@H]1CCc1ccc(C(F)(F)F)cc1` [Compound 1-6, (2R)-2-[(5S)-2,3-dimethoxy-5-{-2-[4-(trifluoromethyl)phenyl]ethyl}-7,8-dihydro-1,6-naphthyridin-6(5H)-yl]-N-methyl-2-phenylethanamide], the inhibition constant (Ki) was 0.19 nM. The Ki values of the last two molecules are within 1.5-fold of each other.

In turn, `CNC(=O)[C@@H](c1ccccc1)N1CCc2nc(OC)c(OC)nc2[C@@H]1CCc1ccc(C(F)(F)F)cc1` [Compound 1-11, (2R)-2-[(5S)-2,3-dimethoxy-5-{2-[4-(trifluoromethyl)phenyl]ethyl}-7,8-dihydropyrido[3,4-b]pyrazin-6(5H)-yl]-N-methyl-2-phenylethanamide] came in with an inhibition constant Ki of 0.44 nM.

As to `CNC(=O)[C@@H](c1ccccc1)N1CCc2nc(OC)c(OC)cc2[C@@H]1CCc1ccc(Cl)cc1` [Compound 1-7, (2R)-2-[(5S)-5-[2-(4-chlorophenyl)-ethyl]-2,3-dimethoxy-7,8-dihydro-1,6-naphthyridin-6(5H)-yl]-N-methyl-2-phenylethanamide], the inhibition constant Ki is 0.26 nM.

The values are drawn from patent publication US20120101106A1, “Tetrahydronapthyridine Orexin Receptor Antagonists” (priority 2009, published 2012).
